According to PMC5642495, “Characterization of a novel androgen receptor (AR) coregulator RIPK1 and related chemicals that suppress AR-mediated prostate cancer growth via peptide and chemical screening” (Oncotarget, 2017):

Assays:
[1] = test system: AR transactivation; assay: AR transcriptional reporter assay in PC-3 cells; format: cell-based, human; conditions: 10 nM DHT
Experimental: Figure 1 Associations between RIPK1 and AR (A) Co-IP of Flag-RIPK1 with Flag-AR in the 293T cell line. Extracts of 293T cells overexpressing 3xFlag-RIPK1 and 3xFlag-AR were treated with […]. IP was performed using anti-AR (C19) or anti-RIPK1 antibody or normal rabbit serum (negative control), followed by immunoblotting (IB) with antibodies against AR or RIPK1. (B) RIPK1 interacts with full-length AR and the N- and C-terminal regions of AR in GST pull-down assays. Mutation of the FxxFY motif to AxxAA in RIPK1 reduced interactions with AR. […] (C) Transfection of PC-3 prostate cancer cells with AR and RIPK1. PC-3 cells in 24-well plates were co-transfected with 300 ng MMTV-LUC reporter plasmid and 0.5 ng SV40-Renilla luciferase plasmid, together with 100 ng pCMV-Flag-AR and 100, 300 or 500 ng p3xFLAG- RIPK1. The total plasmid DNA content was made up to 1 µg with pCMV. After 16 h, ethanol or 10 nM DHT was added and cells incubated for an additional 16 h. DHT was used as the AR ligand while ARA70N served as the positive control. Relative LUC activity was determined using the dual luciferase system. (D) RIPK1 functional domain mapping in relation to AR transactivation. PC-3 cells were transfected with pCMV-Flag-AR and RIPK1 expression plasmid, P3xFlag-RIPK1 full-length, P3xFlag-RIPK1-(240-671) or P3xflag-RIPK1-(1-558) plasmid, and cultured overnight. Ethanol or 10 nM DHT was added and cells incubated for an additional 16 h. Relative LUC activity was determined using the dual luciferase system. (E) RIPK1 is expressed in benign prostatic hyperplasia tissue, displaying strong positivity (3+, > 90%) in the gland area but weak (1+, 50%) staining in the background. (F) Human prostate cancer tissues were immunostained for RIPK1. “T” indicates the tumor area (right side) and “Non-T” the non-tumor area (left side). RIPK1 expression was weak (1+, 80%) in the cancer area but remained strong (3+, 70%) in the peri-cancer area. The figures are representative of three benign prostatic gland hyperplasia and cancer tissues.
The PC-3 prostate cancer cell line was used for experiments. […]

[2] = target: T1, AR N-C interaction (Homo sapiens, UniProt P10275); assay: AR N-C interaction reporter assay in PC-3 cells; format: cell-based; conditions: 10 nM DHT, Figure 6A
T1 construct: pCDNA3-hAR-C (residues 556–919); expressed in transfected cells; host or cells: PC-3
T1 sequence (P10275 556-919): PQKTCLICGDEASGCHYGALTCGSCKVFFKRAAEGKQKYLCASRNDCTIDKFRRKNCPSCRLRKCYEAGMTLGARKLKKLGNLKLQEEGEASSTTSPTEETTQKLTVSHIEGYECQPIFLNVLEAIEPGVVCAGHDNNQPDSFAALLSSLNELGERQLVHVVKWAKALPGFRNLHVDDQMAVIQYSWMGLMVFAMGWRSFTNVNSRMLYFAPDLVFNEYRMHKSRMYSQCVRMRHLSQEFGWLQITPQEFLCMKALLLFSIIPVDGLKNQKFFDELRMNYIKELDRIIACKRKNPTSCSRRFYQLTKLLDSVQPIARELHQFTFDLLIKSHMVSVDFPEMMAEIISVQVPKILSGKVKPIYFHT
Experimental: Figure 6 Mechanism underlying suppression of AR-related functions by oxadiazole derivatives (A–C) Transcriptional activity in reporter assays. PC-3 cells in 24-well plates were transfected as indicated below. After incubation for 16 h, cells were treated with ethanol, 10 nM DHT, or 0.01–10 μM HWC-489 or LHJ-647 for an additional 16 h. Luciferase activity in cell lysates was determined and normalized to protein concentrations. Relative luciferase activity was calculated using the luciferase reporter assay system. (A) PC-3 cells were co-transfected with 350 ng pCDNA3-flag-hAR-N (residues 1–506), 350 ng pCDNA3-hAR-C (residues 556–919), and 300 ng MMTV-Luc plasmids. (B) PC-3 cells were co-transfected with 350 ng GAL4-DBD-3-18, 350 ng pCMX-VP16-AR, and 300 ng pG5-Luc plasmids. (C) PC-3 cells were transfected with 350 ng GAL4-DBD-ARA54C, 350 ng VP16-AR, and 300 ng pG5-Luc plasmids. (D) LHJ-647 promotes AR protein degradation.

Row | SMILES | effect on AR transactivation in combination with enzalutamide ([1]; 1 µM enzalutamide plus 0.1 µM HWC-489 (lane 14 vs. 4)) | concentration range of significant suppression of AR N-C interaction [2] | effect on AR transactivation in combination with enzalutamide ([1]; 1 µM enzalutamide plus 1 µM LHJ-647 (lane 9 vs. 4))
1 | Cc1ccc(-c2nnc(Nc3ccccc3)o2)cc1 [HWC-489] | additive effect | 0.1 to 1 µM | 
2 | COc1cccc(Nc2nnc(-c3ccc(N(C)C)cc3)o2)c1 [LHJ-647] |  | 0.1 to 1 µM | additive effect
